The structures appear in SMILES notation. pKi: −log10 of the molar value. Activity calls are given as the source filed them. No cut-off for these calls is given here.

Target in one assay: not listed separately
The experiment in a line: (§1) Inhibition of Trypanosoma cruzi dihydroorotate dehydrogenase by isothermal titration calorimetry. The conditions noted are these: read-out: Ki(app). A general note: Isothermal titration calorimetry measures the heat released or taken up as one component is titrated into another.
The pKi is the negative decadic logarithm of the Ki, by convention in mol/L. On to `CN(C)Cc1c(C(=O)O)[nH]c(=O)[nH]c1=O`, for which the pKi was 3.52.

For the compound `O=C(O)c1[nH]c(=O)[nH]c(=O)c1F`, the pKi was 4.71.

For the compound `O=C(O)c1[nH]c(=O)[nH]c(=O)c1[N+](=O)[O-]`, the pKi is 3.86. The same measure, in the same setting: for `O=C(O)c1cc(=O)[nH]c(=O)[nH]1` [OROTIC ACID] the value was 4.14; for `O=C(O)c1nc(=O)[nH]c(=O)[nH]1` [OTERACIL], 4.66. On to `Nc1c(C(=O)O)[nH]c(=O)[nH]c1=O`, for which the pKi was 4.02.

In another assay the test system is Trypanosoma cruzi. Described as §1.
Settings: not given
For the compound `O=C1OCc2c1[nH]c(=O)[nH]c2=O`, the “Ki(app)” value was “inactive”. In the case of `Oc1nc(O)c2nc(O)[nH]c2n1`, the “Ki(app)” value is “inactive”. As to `O=c1[nH]c(=O)c2nn[nH]c2[nH]1`, the “Ki(app)” value was “inactive”. Take `CCCCOC(=O)c1cc(O)nc(O)n1`: the “Ki(app)” value is “inactive”.

Target in a further assay: not listed separately
Kind of assay: Inhibition of Leishmania major dihydroorotate dehydrogenase by isothermal titration calorimetry. The conditions noted are these: read-out: Ki(app).
On to `O=C(O)c1[nH]c(=O)[nH]c(=O)c1[N+](=O)[O-]`, for which the pKi is 3.67. Same read-out and setting: for `Nc1c(C(=O)O)[nH]c(=O)[nH]c1=O` the value was 4.08.
